Values quoted from earlier work as cited in paper PMC3026871 (Cancer chemotherapy and pharmacology, 2010).

Target: Aurora A kinase in skin basal epithelial cells (Homo sapiens, UniProt O14965)
Details: subsequent studies, similar times, identical assays; cited from earlier work

Aurora A kinase in skin basal epithelial cells, sequence (O14965 whole entry): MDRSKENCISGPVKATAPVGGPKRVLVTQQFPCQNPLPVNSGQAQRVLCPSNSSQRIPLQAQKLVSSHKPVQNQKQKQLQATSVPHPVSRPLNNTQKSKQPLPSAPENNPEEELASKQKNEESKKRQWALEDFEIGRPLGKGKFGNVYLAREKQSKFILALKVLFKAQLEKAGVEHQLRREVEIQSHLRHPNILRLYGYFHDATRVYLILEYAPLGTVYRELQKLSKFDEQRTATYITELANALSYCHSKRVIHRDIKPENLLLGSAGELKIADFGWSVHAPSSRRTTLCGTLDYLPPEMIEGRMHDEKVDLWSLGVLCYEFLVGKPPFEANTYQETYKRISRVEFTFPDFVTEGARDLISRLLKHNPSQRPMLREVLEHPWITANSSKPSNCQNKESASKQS

COc1cc(Nc2ncc3c(n2)-c2ccc(Cl)cc2C(c2c(F)cccc2OC)=NC3)ccc1C(=O)O [MLN8237]
pharmacodynamic activity in skin biopsies: dose-dependent pharmacodynamic activity in skin biopsies
